Measured values taken from ChEMBL document CHEMBL1140149, “Discovery of bioavailable 4,4-disubstituted piperidines as potent ligands of the chemokine receptor 5 and inhibitors of the human immunodeficiency virus-1” (J Med Chem, 2008).
pIC50: −log10 of the molar value.

Assays:
[1] = target: C-C chemokine receptor type 5 (Homo sapiens, UniProt P51681); experiment: Displacement of [125I]MIP-1beta from human CCR5 expressed in CHO cells; type: cell-based
[2] = system: Human immunodeficiency virus 1; experiment: Antiviral activity against HIV1 Ba-L in human HOS cells by MTS assay; type: functional, organism-based; conditions: Human immunodeficiency virus 1, Ba-L
[3] = Bioavailability in rat at 1 mg/kg, po; conditions: in vivo
[4] = system: Human immunodeficiency virus 1; experiment: Antiviral activity against HIV1 Ba-L in human PBL cells by MTS assay; type: functional, organism-based; conditions: Human immunodeficiency virus 1, Ba-L
in vivo = conditions: rat

Sequence of C-C chemokine receptor type 5 (P51681 whole entry): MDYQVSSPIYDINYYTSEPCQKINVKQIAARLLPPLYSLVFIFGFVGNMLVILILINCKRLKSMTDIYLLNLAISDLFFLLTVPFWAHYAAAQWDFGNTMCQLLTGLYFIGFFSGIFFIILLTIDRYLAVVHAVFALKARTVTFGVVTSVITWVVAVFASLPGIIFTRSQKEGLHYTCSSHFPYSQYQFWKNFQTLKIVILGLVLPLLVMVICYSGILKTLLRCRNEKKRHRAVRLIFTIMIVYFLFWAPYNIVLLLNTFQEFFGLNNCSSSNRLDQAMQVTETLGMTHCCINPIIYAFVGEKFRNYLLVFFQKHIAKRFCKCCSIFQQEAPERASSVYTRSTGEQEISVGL

Row | SMILES | pIC50 [1] | also measured
1 | O=C1CCC(CCCN2CCC(n3c(=O)[nH]c4ccccc43)CC2)(c2ccc(Cl)c(Cl)c2)CN1Cc1ccccc1 (stereo not given) | 4.70 | 
2 | Cc1nc2ccccc2n1[C@H]1C[C@H]2CC[C@@H](C1)N2CCCC1(c2ccccc2)CCN(C(=O)OC(C)(C)C)CC1 | < 4.50 | 
3 | Cc1nc2ccccc2n1[C@@H]1C[C@H]2CC[C@@H](C1)N2CCCC1(c2ccc(Cl)c(Cl)c2)CCN(C(=O)OC(C)(C)C)CC1 | 4.70 | 
4 | Cc1nc2ccccc2n1[C@@H]1C[C@H]2CC[C@@H](C1)N2CCCC1(c2ccccc2)CCN(C(=O)c2ccco2)CC1 | 5.30 | 
5 | Cc1nc2ccccc2n1[C@@H]1C[C@H]2CC[C@@H](C1)N2CCCC1(c2ccccc2)CCN(C(=O)c2ccccc2)CC1 | 5.90 | 
6 | Cc1nc2ccccc2n1[C@@H]1C[C@H]2CC[C@@H](C1)N2CCC1(c2ccccc2)CCN(C(=O)OC(C)(C)C)CC1 | 7.20 | pIC50 [2]: 5.90
7 | Cc1nc2ccccc2n1[C@@H]1C[C@H]2CC[C@@H](C1)N2CCC1(c2ccccc2)CCN(C(=O)OCc2ccccc2)CC1 | 7.20 | 
8 | Cc1nc2ccccc2n1[C@H]1C[C@H]2CC[C@@H](C1)N2CCC1(c2ccc(Cl)c(Cl)c2)CCN(C(=O)c2ccccc2)CC1 | 7.80 | 
9 | Cc1nc2ccccc2n1[C@H]1C[C@H]2CC[C@@H](C1)N2CCC1(c2cccc(Cl)c2)CCN(C(=O)c2ccccc2)CC1 | 8.28 | 
10 | Cc1nc2ccccc2n1[C@H]1C[C@H]2CC[C@@H](C1)N2CCC1(c2ccc(Cl)c(Cl)c2)CCN(C(=O)C(C)(C)C)CC1 | 8.14 | pIC50 [2]: 7.47
11 | Cc1nc2ccccc2n1[C@H]1C[C@H]2CC[C@@H](C1)N2CCC1(c2ccc(Cl)c(Cl)c2)CCN(C(=O)OC(C)(C)C)CC1 | 7.53 | 
12 | Cc1nc2ccccc2n1[C@H]1C[C@H]2CC[C@@H](C1)N2CCC1(c2cccc(Cl)c2)CCN(C(=O)C(C)(C)C)CC1 |  | LBF (Rattus norvegicus): 38%; bioavailability [3]: 26%; pIC50 [4]: 8.72; clearance (in vivo): 21 mL/min/kg; pIC50 [2]: 7.84
13 | Cc1nc2ccccc2n1[C@H]1C[C@H]2CC[C@@H](C1)N2CCC1(c2cccc(Cl)c2)CCN(C(=O)OC(C)(C)C)CC1 | 8.30 | 
14 | Cc1nc2ccccc2n1[C@H]1C[C@H]2CC[C@@H](C1)N2CCC1(c2ccc(Cl)c(Cl)c2)CCN(C(=O)OC(C)(C)C)C1 (stereo not given in full) | 6.11 | 
15 | O=C(c1ccccc1)N1CCCC(CCCN2CCC(n3c(=O)[nH]c4ccccc43)CC2)(c2ccc(Cl)c(Cl)c2)C1 (stereo not given) | 5.80 | 
16 | CN1CN(c2ccccc2)C2(CCN(CCCC3(c4ccc(Cl)c(Cl)c4)CCN(C(=O)c4ccco4)C3)CC2)C1=O (stereo not given) | 5.15 | 
17 | O=C1NCN(c2ccccc2)C12CCN(CCOC1(c3ccc(Cl)c(Cl)c3)CCN(S(=O)(=O)c3ccccc3)CC1)CC2 | 5.62 | 
18 | O=C1CC(CCCN2CCC3(CC2)C(=O)NCN3c2ccccc2)(c2ccc(Cl)c(Cl)c2)CN1Cc1ccccc1 (stereo not given) | 5.99 | 
19 | NC(=O)C1(Nc2ccccc2)CCN(CCCC2(c3ccc(Cl)c(Cl)c3)CCCN(C(=O)c3ccccc3)C2)CC1 (stereo not given) | < 4.50 | 
20 | CC(C)(C)OC(=O)N1CCC(CCN2CCC3(CC2)C(=O)NCN3c2ccccc2)(c2ccccc2)CC1 | 5.34 | 

Row | SMILES | pIC50 [1] | also measured
21 | CC(C)(C)OC(=O)N1CCC(CCCN2CCC(n3c(=O)[nH]c4ccccc43)CC2)(c2ccc(Cl)c(Cl)c2)CC1 | 5.10 | 
22 | CC(C)(C)OC(=O)N1CCC(CCCN2CCC(n3c(=O)[nH]c4ccccc43)CC2)(c2ccccc2)CC1 | 5.40 | 
23 | O=C(c1ccco1)N1CCC(CCCN2CCC3(CC2)C(=O)NCN3C2CCCCC2)(c2ccc(Cl)c(Cl)c2)C1 (stereo not given) | < 4.50 | 
24 | O=C1CC(CCN2CCC3(CC2)C(=O)NCN3c2ccccc2)(c2ccc(Cl)c(Cl)c2)CN1Cc1ccccc1 (stereo not given) | 5.03 | 
25 | O=C1NCN(c2ccccc2)C12CCN(CCCC1(c3ccc(Cl)c(Cl)c3)CCN(Cc3ccco3)C1)CC2 (stereo not given) | 5.28 | 
26 | O=C(c1ccco1)N1CCC(CCN2CCC3(CC2)C(=O)NCN3c2ccccc2)(c2ccccc2)C1 (stereo not given) | 5.03 | 
27 | O=C(c1ccco1)N1CCC(OCCN2CCC3(CC2)C(=O)NCN3c2ccccc2)(c2ccc(Cl)c(Cl)c2)CC1 | 5.46 | 
28 | O=C1NCN(c2ccccc2)C12CCN(CCCC1(c3ccc(Cl)c(Cl)c3)CN(S(=O)(=O)c3ccccc3)C1)CC2 | 5.04 | 
29 | O=C1NCN(c2ccccc2)C12CCN(CCOC1(c3ccc(Cl)c(Cl)c3)CCN(S(=O)(=O)c3ccccc3)C1)CC2 (stereo not given) | 4.69 | 
30 | O=C1CCC(CCCN2CCC3(CC2)C(=O)NCN3c2ccccc2)(c2ccc(Cl)c(Cl)c2)CN1Cc1ccccc1 (stereo not given) | 6.00 | 
31 | Cc1nc2ccccc2n1C1CC2COCC(C1)N2CCC1(c2ccccc2)CCN(C(=O)c2ccccc2)CC1 (stereo not given) | < 5.50 | 
32 | O=C(c1ccco1)N1CCC(CCCN2CCC3(CC2)C(=O)NC(=O)N3c2ccccc2)(c2ccc(Cl)c(Cl)c2)C1 (stereo not given) | < 4.50 | 
33 | O=C(c1ccccc1)N1CCCC(CCCN2CCC3(CC2)C(=O)NCN3c2ccccc2)(c2ccc(Cl)c(Cl)c2)C1 (stereo not given) | 6.35 | 
34 | O=C(C1CCCC1)N1CCC(OCCN2CCC3(CC2)C(=O)NCN3c2ccccc2)(c2ccc(Cl)c(Cl)c2)C1 (stereo not given) | 5.32 | 
35 | O=C(c1ccco1)N1CCC(CCN2CCC3(CC2)C(=O)NCN3c2ccccc2)(c2ccc(Cl)c(Cl)c2)C1 (stereo not given) | 5.83 | 
36 | O=C(c1ccco1)N1CCC(OCCN2CCC3(CC2)C(=O)NCN3c2ccccc2)(c2ccc(Cl)c(Cl)c2)C1 (stereo not given) | 5.40 | 
37 | O=C(c1ccco1)N1CCC(CCCN2CCC3(CC2)C(=O)NCN3c2ccccc2)(c2ccc(Cl)c(Cl)c2)C1 (stereo not given) | 6.85 | 
38 | CC(C)(C)OC(=O)N1CCC(CCCN2CCC3(CC2)C(=O)NCN3c2ccccc2)(c2ccccc2)CC1 | 5.07 | 
39 | Cc1nc2ccccc2n1[C@H]1CC2CC[C@H](C1)N2CCC1(c2ccccc2)CCN(C(=O)C2CCCC2)CC1 (single isomer, unassigned) | 7.70 | 
